Results as given in patent publication US20120328569A1, “INHIBITORS OF HEPATITIS C VIRUS NS5B POLYMERASE” (priority 2010, published 2012).

Each compound was assayed on HCV genotype 1b replicon (assay: HCV replicon assay, cell ELISA with antibody to replicon-encoded NS3/4A (genotype 1b replicon)). Conditions: Hepatitis C virus, 96 h, read-out: 1b IC50(nM), HCV genotype 1b replicon; 96 hours incubation; NS3/4A cell ELISA.
Type: cell-based, hepatitis C virus
Experimental: The HCV NS5B inhibitory activity of the present compounds may be tested using assays known in the art. The HCV NS5B polymerase inhibitors described herein have activities in a genotype 1b replicon assay as described in the Examples. The assay is performed by incubating a replicon harboring cell-line in the presence of inhibitor for a set period of time and measuring the effect of the inhibitor on HCV replicon replication either directly by quantifying replicon RNA level, or indirectly by measuring enzymatic activity of a co-encoded reporter enzyme such as luciferase or β-lactamase. By performing a series of such measurements at different inhibitor concentrations, the effective inhibitory concentration of the inhibitor (EC50 or EC90) is determined. See Jan M. Vrolijk et al., A replicons-based bioassay for the measurement of interferons in patients with chronic hepatitis C, 110 J. VIROLOGICAL METHODS 201 (2003). Such assays may also be run in an automated format for high through-put screening. See Paul Zuck et al., A cell-based β-lactamase reporter gene assay for the identification of inhibitors of hepatitis C virus replication, 334 ANALYTICAL BIOCHEMISTRY 344 (2004).
Measurement of inhibition by compounds was performed using the HCV replicon system. Several different replicons encoding different HCV genotypes or mutations were used. In addition, potency measurements were made using different formats of the replicon assay, including different ways of measurements and different plating formats. See Jan M. Vrolijk et al., A replicons-based bioassay for the measurement of interferons in patients with chronic hepatitis C, 110 J. VIROLOGICAL METHODS 201 (2003); Steven S. Carroll et al., Inhibition of Hepatitis C Virus RNA Replication by 2′-Modified Nucleoside Analogs, 278(14) J. BIOLOGICAL CHEMISTRY 11979 (2003). However, the underlying principles are common to all of these determinations, and are outlined below.
Stable neomycin phosphotransferase encoding replicons-harboring cell lines were used, so all cell lines were maintained under G418 selection prior to the assay. Potency was determined using a cell ELISA assay with an antibody to the replicons encoded NS3/4a protease. See Caterina Trozzi et al., In Vitro Selection and Characterization of Hepatitis C Virus Serine Protease Variants Resistant to an Active-Site Peptide Inhibitor, 77(6) J. Virol. 3669 (2003). To initiate an assay, replicon cells were plated in the presence of a dilution series of test compound in the absence of G418. Typically, the assays were performed in a 96-well plate formate for manual operation, or a 384-well plate format for automated assay. Replicon cells and compound were incubated for 96 hours. At the end of the assay, cells were washed free of media and compound, and the cells were then lysed. RNA was quantified indirectly through detection of replicon-encoded NS3/4A protein levels, through an ELISA-based assay with an antibody specific for NS3/4A. IC50 determinations were calculated as a percentage of a DMSO control by fitting the data to a four-parameter fit function and the data obtained is provided in the table below.

SMILES | IC50 [nM]
CNC(=O)c1c(-c2ccc(F)cc2)oc2cc(N(C3CC(C#N)C3)S(C)(=O)=O)c(-c3ccc(OC)c(-c4nc5c(C#N)cccc5o4)c3)cc12 (stereo not drawn) [Example 741] | 5.85
CNC(=O)c1c(-c2ccc(F)cc2)oc2cc(N(C3CN(C(=O)[C@@H](NC(=O)OC)C(C)C)C3)S(C)(=O)=O)c(-c3ccc(OC)c(-c4nc5c(F)cccc5o4)c3)cc12 [Example 834] | 11.5
CNC(=O)c1c(-c2ccc(F)cc2)oc2cc(N(C)S(C)(=O)=O)c(-c3ccc(OC)c(-c4cc5ncccc5s4)c3)cc12 [Example 688] | 7.53
CNC(=O)c1c(-c2ccc(F)cc2)oc2cc(N(CC(C)(CF)CF)S(C)(=O)=O)c(-c3ccc(OC)c(-c4nc5c(F)cc(F)cc5o4)c3)cc12 [Example 809] | 213
CNC(=O)c1c(-c2ccc(F)cc2)oc2cc(N(CC3CC3)S(C)(=O)=O)c(-c3ccc(OC)c(-c4nc5cc(F)cc(F)c5o4)c3)cc12 [Example 706] | 16.7
CNC(=O)c1c(-c2ccc(F)cc2)oc2cc(N(C)S(C)(=O)=O)c(-c3cccc(-c4nc5c(o4)CCCC5(F)F)c3)cc12 [Example 515] | 3.99
CNC(=O)c1c(-c2ccc(F)cc2)oc2cc(N(CCC(C)(C)O)S(C)(=O)=O)c(-c3ccc(OC)c(-c4nc5ncccc5o4)c3)cc12 [Example 880] | 2.9

Same assay, conditions: Hepatitis C virus, 96 h, read-out: Replicon 1b IC50 (nM), HCV genotype 1b replicon cells, 96 hours incubation, NS3/4A ELISA readout

SMILES | IC50 [nM]
CNC(=O)c1c(-c2ccc(F)cc2)oc2cc(N(C)S(C)(=O)=O)c(-c3cccc(-c4nnn(Cc5ccccc5)n4)c3)cc12 [Example 139, 5-[3-(2-benzyl-2H-tetrazol-5-yl)phenyl]-2-(4-fluorophenyl)-N-methyl-6-[methyl (methylsulfonyl)amino]-1-benzofuran-3-carboxamide] | 5
CNC(=O)c1c(-c2ccc(F)cc2)oc2cc(N(Cc3cccc(F)c3)S(C)(=O)=O)c(-c3ccccc3)cc12 [Example 53, 6-[(3-fluorobenzyl)(methyl-sulfonyl)amino]-2-(4-fluorophenyl)-N-methyl-5-phenyl-1-benzofuran-3-carboxamide] | 373
CNC(=O)c1c(-c2ccc(F)cc2)oc2cc(N(C)S(C)(=O)=O)c(-c3cccc(-c4nc5ncc(F)cc5o4)c3)cc12 [Example 201] | 1.7
CONC(=O)c1c(-c2ccc(F)cc2)oc2cc(N(C)S(C)(=O)=O)c(-c3ccc(C)cc3)cc12 [Example 93, 2-(4-fluorophenyl)-N-methoxy-6-[methyl (methylsulfonyl)amino]-5-(4-methylphenyl)-1-benzofuran-3-carboxamide] | 54
CNC(=O)c1c(-c2ccc(F)cc2)oc2cc(N(C)S(C)(=O)=O)c(-c3cccc(-c4cn5ccccc5n4)c3)cc12 [Example 141, 2-(4-fluorophenyl)-5-[3-(imidazo[1,2-a]pyridin-2-yl)phenyl]-N-methyl-6-[methyl (methylsulfonyl)amino]-1-benzofuran-3-carboxamide] | 3
CNC(=O)c1c(-c2ccc(F)cc2)oc2cc(N(C)S(C)(=O)=O)c(-c3ccc(F)c(-c4nc5ccccc5s4)c3F)cc12 [Example 296] | 64.1
CNC(=O)c1c(-c2ccc(F)cc2)oc2cc(N(C)S(C)(=O)=O)c(-c3ccc(OC)c(-c4nc5cc(F)ccc5o4)c3)cc12 [Example 404] | 2.6
CNC(=O)c1c(-c2ccc(F)cc2)oc2cc(N(C)C(=O)CN(C)c3ccccc3)c(-c3ccccc3)cc12 [Example 74, 2-(4-fluorophenyl)-N-methyl-6-[methyl(N-methyl-N-phenylglycyl)amino]-5-phenyl-1-benzofuran-3-carboxamide] | 395
CNC(=O)c1c(-c2ccc(F)cc2)oc2cc(N(C)S(C)(=O)=O)c(-c3ccc(Cl)c(-c4nc5ccccc5o4)c3)cc12 [Example 177] | 7.4
CNC(=O)c1c(-c2ccc(F)cc2)oc2cc(N(C3CCCC3)S(C)(=O)=O)c(-c3ccccc3)cc12 [Example 22, 6-[cyclopentyl (methylsulfonyl)amino]-2-(4-fluorophenyl)-N-methyl-5-phenyl-1-benzofuran-3-carboxamide] | 55
CNC(=O)c1c(-c2ccc(F)cc2)oc2cc(N(C)S(C)(=O)=O)c(-c3ccc(F)c(-c4nc5ncccc5s4)c3)cc12 [Example 260] | 3.7
CNC(=O)c1c(-c2ccc(F)cc2)oc2cc(N(C)S(C)(=O)=O)c(-c3ccc(Cl)c(-c4nc5c(C)ccnc5[nH]4)c3)cc12 [Example 321] | 6.6
CNC(=O)c1c(-c2ccc(F)cc2)oc2cc(N(C)S(C)(=O)=O)c(-c3cccc(-c4[nH]c5ncccc5c4CO)c3)cc12 [Example 383, 2-(4-fluorophenyl)-5-(3-(3-(hydroxymethyl)-1H-pyrrolo[2,3-b]pyridin-2-yl)phenyl)-N-methyl-6-(N-methylmethylsulfonamido)benzofuran-3-carboxamide] | 2.5
CNC(=O)c1c(-c2ccc(F)cc2)oc2cc(N(C)S(C)(=O)=O)c(-c3ccc(OC)c(-c4nc5c(F)cccc5o4)c3)cc12 [Example 402, 5-(3-(4-fluorobenzo[d]oxazol-2-yl)-4-methoxyphenyl)-2-(4-fluorophenyl)-N-methyl-6-(N-methylmethylsulfonamido)benzofuran-3-carboxamide] | 0.9
CCCCCN(c1cc2oc(-c3ccc(F)cc3)c(C(=O)NC)c2cc1-c1ccccc1)S(C)(=O)=O [Example 20, 2-(4-fluorophenyl)-N-methyl-6-[(methylsulfonyl) (pentyl)amino]-5-phenyl-1-benzofuran-3-carboxamide] | 66
CNC(=O)c1c(-c2ccc(F)cc2)oc2cc(N(C)S(C)(=O)=O)c(-c3cccc(-c4nc5ncc(Cl)cc5o4)c3)cc12 [Example 202] | 1
CNC(=O)c1c(-c2ccc(F)cc2)oc2cc(N(C)S(C)(=O)=O)c(-c3cc(F)cc(-c4nc5ccc(Cl)cc5o4)c3)cc12 [Example 163] | 8.5
CNC(=O)c1c(-c2ccc(F)cc2)oc2cc(N(C)S(C)(=O)=O)c(-c3cccc(-c4nc5cc(C(F)(F)F)ccc5s4)c3)cc12 [Example 149, 2-(4-fluorophenyl)-N-methyl-6-[methyl (methylsulfonyl)amino]-5-{3-[5-(trifluoromethyl)-1,3-benzothiazol-2-yl]phenyl}-1-benzofuran-3-carboxamide] | 11
CNC(=O)c1c(-c2ccc(F)cc2)oc2cc(N(C)S(C)(=O)=O)c(-c3cccc(F)c3)cc12 [Example 86, 5-(3-fluorophenyl)-2-(4-fluorophenyl)-N-methyl-6-[methyl (methylsulfonyl)amino]-1-benzofuran-3-carboxamide] | 28
CNC(=O)c1c(-c2ccc(F)cc2)oc2cc(N(C)S(C)(=O)=O)c(-c3ccc(OC(F)(F)F)c(-c4nc5ccccc5o4)c3)cc12 [Example 179] | 7.2
CNC(=O)c1c(-c2ccc(F)cc2)oc2cc(N(C)S(C)(=O)=O)c(-c3cccc(-c4nc5ccncc5s4)c3)cc12 [Example 264] | 2.9
CNC(=O)c1c(-c2ccc(F)cc2)oc2cc(N3C(=O)O[C@H](c4ccccc4)[C@@H]3C)c(-c3ccccc3)cc12 [Example 77, 2-(4-fluorophenyl)-N-methyl-6-[(4S,5R)-4-methyl-2-oxo-5-phenyl-1,3-oxazolidin-3-yl]-5-phenyl-1-benzofuran-3-carboxamide] | 101
CNC(=O)c1c(-c2ccc(F)cc2)oc2cc(N(C)S(C)(=O)=O)c(-c3cc(-c4nc5ccncc5[nH]4)ccc3F)cc12 [Example 335] | 26.4
CNC(=O)c1c(-c2ccc(F)cc2)oc2cc(N(C)S(C)(=O)=O)c(-c3cc(F)cc(-c4nc5ncc(Cl)cc5o4)c3)cc12 [Example 199] | 2.9
CNC(=O)c1c(-c2ccc(F)cc2)oc2cc(N(C)S(C)(=O)=O)c(-c3ccc(F)c(-c4nc5ccccc5s4)c3)cc12 [Example 145, 5-[3-(1,3-benzothiazol-2-yl)-4-fluorophenyl]-2-(4-fluorophenyl)-N-methyl-6-[methyl (methylsulfonyl)amino]-1-benzofuran-3-carboxamide] | 6
CNC(=O)c1c(-c2ccc(F)cc2)oc2cc(N(C)S(C)(=O)=O)c(-c3ccc(OC)c(-c4nc5nccnc5[nH]4)c3)cc12 [Example 338] | 1.5
